# Data as given in patent US20070059824A1, “Human umbilical cord blood-derived pluripotent fibroblast-like-macrophages” (priority 2005, published 2007).
# Key:
# [1] = system: insulin-expressing cells derived from TCB f-MΦ; test: Insulin release from insulin-expressing cells derived from TCB f-MΦ (ELISA); assay type: cell-based, human; conditions: 1 h
# Experimental: TPO-expanded CB f-MΦ (TCB f-MΦ) cultured in 24-well tissue culture plates (Costar, Corning, N.Y.) at 60-70% confluence was treated for 3 days with 1 μg/ml LPS+25 mM glucose in 1 ml 7% FBS-RPMI 1640 medium per well. TCB f-MΦ cultured in the same concentration of glucose served as control. Insulin release was performed as previously described with minor modifications [F. Schuit, A. De Vos, S. Farfari, K. Moens, D. Pipeleers, T. Brun, M. Prentki, Metabolic fate of glucose in purified islet cells. Glucose-regulated anaplerosis in beta cells, J. Biol. Chem. 272 (1997) 18572-18579; and N. Lumelsky, O. Blondel, P. Laeng, I. Velasco, R. Ravin, R. McKay, Differentiation of embryonic stem cells to insulin-secreting structures similar to pancreatic islets, Science 292 (2001) 1389-1394]. Cells were washed 5 times with PBS to remove the serum and then incubated with Kreb's buffer (120 mM NaCl, 5 mM KCl, 2.5 mM CaCl2, 1.1 mM MgCl2, 25 mM NaHCO3, 0.1% BSA) [N. Lumelsky, O. Blondel, P. Laeng, I. Velasco, R. Ravin, R. McKay, Differentiation of embryonic stem cells to insulin-secreting structures similar to pancreatic islets, Science 292 (2001) 1389-1394] for 30 min in the absence of glucose, at 37° C., 8% CO2 conditions. After removing the Kreb's buffer, cells were incubated with different concentration of glucose (0, 5, 10, and 25 mM) and/or other secretagogues (10 μM tolbudamide (Sigma), 500 μM diazoxide (Sigma), or 25 mM mannite (Sigma) in 300 μl Kreb's buffer/well for 1 h. Each treatment had duplicated wells. Insulin levels were monitored using an ultrasensitive human insulin enzyme-linked immunosorbent assay (ELISA) kit (Alpco Diagnostics, Windham, N.H.) following the manufacturer's protocols. Cell number/well from each treatment was finally quantified for calculating insulin level.
# [2] = system: CB f-MΦ; test: Cell proliferation of CB f-MΦ with TPO (CyQUANT Cell Proliferation Assay); assay type: cell-based, human
# Experimental: Therefore, this stage f-MΦ, at ˜80% purity, was selected to examine the effect of TPO. Cells were washed with RPMI 1640 medium three times and then incubated with different concentration of TPO, such as 80, 40, 20, 10, 5, 2.5, 1.25, 0.625, and 0 ng/ml in the 8-well Lab-Tek chamber slides (Nunc, Naperville, Ill.) at 37° C., 8% CO2 conditions. After 4 days, cell proliferation was evaluated using CyQUANT® Cell Proliferation Assay Kit (Molecular Probes, Eugene, Oreg.). Cell fluorescence was measured using a Synergy HT Multi-Detection microplate reader (Bio-Tek Instruments Inc., Winooski, Vt.) equipped with filters for ˜480 nm excitation and ˜520 nm emission. The optical values were analyzed using the manufacturer's software KC4 v3.1.
# [3] = system: CB f-MΦ; test: Immunostaining of TPO-expanded CB f-MΦ for phenotype markers; assay type: cell-based, human
# Experimental: For f-MΦ expansion, the cells at 70% confluence were passaged at ratio 1:2 by pippetting and gently scraping with 100 μl tips (Rainin, Woburn, Mass.). Media were changed every 5-7 days with the fresh RPMI 1640 medium supplemented with 3.5% fetal bovine serum and 5 ng/ml thrombopoietin (TPO).
# [4] = system: TCB f-MΦ; test: Differentiation of f-MΦ into insulin-expressing cells with LPS and high glucose (immunostaining); assay type: cell-based, human
# Source text: The final insulin concentration in the culture medium was 0.196 μU/ml.
# [5] = system: TCB f-MΦ; conditions: 50 ng/ml VEGF for 5-7 days
# Experimental: The cells were incubated for 20 min at room temperature with 2.5% diluted normal horse serum (Vector Laboratories, Burlingame, Calif.) to block nonspecific staining. Cells were then incubated with primary antibodies, the isotype-matched IgG1κ (BD PharMingen, San Diego, Calif.) (as control for mouse monoclonal antibodies), and normal rabbit serum (as control for rabbit polyclonal antibodies). After staining, the slides were mounted with Mounting Medium (Vector Laboratories, Burlingame, Calif.). Cells were viewed and photographed using a Zeiss LSM 510 META confocal microscope equipped with a 25× water immersion objective (Carl Zeiss Inc.), with Argon 488 nm laser for FITC fluorochrome filtered through LP505.
# The TPO-expanded CB f-MΦ was treated with 50 ng/ml VEGF (Cell Sciences Inc., Canton, Mass.) in RPMI-1640 medium supplemented with 7% heat inactivated FBS as previously described [Y. Zhao, D. Glesne, E. Huberman, A human peripheral blood monocyte-derived subset acts as pluripotent stem cells, Proc. Natl. Acad. Sci. U.S.A. 100 (2003) 2426-2431]. After 5-7 days, the treated and untreated cells were prepared for characterizing with endothelial markers, including antibodies to Flt-1, Flk-1, vWF, CD31, and incorporating Dil-Ac-LDL as previously described [D. A. Ingram, L. E. Mead, H. Tanaka, V. Meade, A. Fenoglio, K. Mortell, K. Pollok, M. J. Ferkowicz, D. Gilley, M. C.
# [6] = system: Human umbilical cord blood-derived monocytes; test: Generation of f-MΦ from cord blood monocytes with M-CSF (morphology, cell counting); assay type: cell-based
# Experimental: Human umbilical cord blood samples (50-100 ml/unit) were obtained from healthy donors (Life-Source Blood Services, Glenview, Ill.). The f-MΦ culture was performed as previously described using human peripheral blood (14). Briefly, purified monocytes were seeded into the 8-Well Lab-Tek II Chamber Slide (Fisher Scientific) at 1×10^5 cells/ml, 0.5 ml/well in RPMI 1640 medium supplemented with 7% fetal bovine serum (Invitrogen, Carlsbad, Calif.) and 50 ng/ml M-CSF. The purity of f-MΦ normally reached 80-90% after incubation for 10-14 days at 37° C., 8% CO2 and was then used for experiments.
# [7] = 5 ng/ml TPO, culture for 2 months
molecule,measurement,setting,value
CC1=NS(=O)(=O)c2cc(Cl)ccc2N1 [diazoxide],insulin release,"[1]; 500 μM, in the presence of 25 mM glucose",inhibits insulin release
OC[C@@H](O)[C@@H](O)[C@H](O)[C@H](O)CO [mannite],insulin release,"[1]; 25 mM, osmolarity control",failed to stimulate insulin release
CCCCNC(=O)NS(=O)(=O)c1ccc(C)cc1 [tolbutamide],insulin release,"[1]; 10 μM, in the presence of 5 mM glucose",stimulates insulin release
Thrombopoietin [TPO],cell number relative to TPO-untreated CB f-MΦ,[2]; TPO 2.5-5 ng/ml,about 2 times
same,cell number relative to control monocytes,[2]; TPO 2.5-5 ng/ml,~10 times
same,proliferation of CB f-MΦ at higher dosage,[2]; TPO >40 ng/ml,inhibited the proliferation
same,"CD34 expression, share of cells",[3]; [7],~30%
same,"expression of CD45, CD14, CD163 and CD117",[3]; [7],at the same level as parental CB f-MΦ
same,"expression of platelet and megakaryocyte markers CD41a, CD41b, CD42b",[3]; 4th and 5th passaged cells after TPO expansion,not induced
lipopolysaccharide [LPS],cells expressing glucagon-like peptide 1 receptor,"[4]; CB f-MΦ, 50 ng/ml LPS in the presence of 25 mM glucose for 2 days",around 70%
same,cells strongly positive for insulin and C-peptide,[4]; LPS 1 μg/ml in the presence of 25 mM glucose,85-90%
vascular endothelial cell growth factor [VEGF],expression of endothelial cell-associated markers,[5],"significantly expressed Flt-1, Flk-1, vWF, and CD31"
"macrophage colony-stimulating factor (protein, UniProt P09603 33-554, looked up, Recombinant human macrophage colony-stimulating factor from Sigma) Macrophage colony-stimulating …: EEVSEYCSHMIGSGHLQSLQRLIDSQMETSCQITFEFVDQEQLKDPVCYLKKAFLLVQDIMEDTMRFRDNTPNAIAIVQLQELSLRLKSCFTKDYEEHDKACVRTFYETPLQLLEKVKNVFNETKNLLDKDWNIFSKNCNNSFAECSSQDVVTKPDCNCLYPKAIPSSDPASVSPHQPLAPSMAPVAGLTWEDSEGTEGSSLLPGEQPLHTVDPGSAKQRPPRSTCQSFEPPETPVVKDSTIGGSPQPRPSVGAFNPGMEDILDSAMGTNWVPEEASGEASEIPVPQGTELSPSRPGGGSMQTEPARPSNFLSASSPLPASAKGQQPADVTGTALPRVGPVRPTGQDWNHTPQKTDHPSALLRDPPEPGSPRISSLRPQGLSNPSTLSAQPQLSRSHSSGSVLPLGELEGRRSTRDRRSPAEPEGGPASEGAARPLPRFNSVPLTDTGHERQSEGSFSPQLQESVFHLLVPSVILVLLAVGGLLFYRWRRRSHQEPQRADSPLEQPEGSPLTQDDRQVELPV",cells elongated,[6]; 50 ng/ml M-CSF for 10-14 days,80-90%
same,cell number,"[6]; 50 ng/ml M-CSF, FIG. 1",significantly increased the cell number
